Paper PMC9597602, “Metal Complexes as Antifungals? From a Crowd-Sourced Compound Library to the First In Vivo Experiments” (JACS Au, 2022)
Where two headings read alike, the source gives them in different places.

How the values were obtained:
[1] = test system: Cryptococcus deuterogattii CBS7750 VGII; Serotype B; assay: Antifungal MIC assay, extended panel; type: cell-based; conditions: extended panel, second batch; ≥80 or ≥50% inhibition
Experimental: (§1) For the fungal assays, both fungi (yeast) strains were cultured for 3 days on Yeast Extract-Peptone Dextrose (YPD; Becton Dickinson 242720) agar at 30 °C. A yeast suspension of 1 × 10^6 to 5 × 10^6 CFU/mL (as determined by OD530) was prepared from five colonies from the agar plates, subsequently diluted with Yeast Nitrogen Base media (YNB; Becton Dickinson 233520), and added to each well of the compound containing plates (384-well plates, NBS; Corning CLS3640), giving a final cell density of 2.5 × 10^3 CFU/mL and a total volume of 50 μL. Plates were covered and incubated at 35 °C for 36 h without shaking. […] MIC values were recorded as the lowest concentration at which the growth was inhibited by ≥80%, equivalent to ″optically clear-to-slightly hazy″ or MIC score of 0–1 as per CLSI guidelines M27 Reference Method for Broth Dilution Antifungal Susceptibility Testing of Yeasts. […] Fluconazole (Sigma F8929) was used as internal control on each plate for all strains. All compounds were tested as two technical replicates in two to four independent biological assays, n = 4–8 final data.

[2] = test system: Candida tropicalis ATCC 750; assay: Antifungal MIC assay, extended panel; type: cell-based; conditions: extended panel, second batch; ≥80 or ≥50% inhibition
Experimental: as §1

[3] = test system: Cryptococcus deuterogattii ATCC 32609 VGII; assay: Antifungal MIC assay, extended panel; type: cell-based; conditions: extended panel, second batch; ≥80 or ≥50% inhibition
Experimental: as §1

[4] = test system: Candida glabrata ATCC 90030 NCCLS 84; assay: Antifungal MIC assay, extended panel; type: cell-based; conditions: extended panel, second batch; ≥80 or ≥50% inhibition
Experimental: as §1

[5] = test system: Candida tropicalis ATCC 750; assay: Antifungal MIC assay, extended panel; type: cell-based; conditions: extended panel; 50% inhibition, MIC score 2
[6] = test system: Candida glabrata ATCC 90030 NCCLS 84; assay: Antifungal MIC assay, extended panel; type: cell-based; conditions: extended panel; 50% inhibition, MIC score 2
[7] = test system: Cryptococcus neoformans H99 ATCC 208821 type strain; assay: Antifungal MIC assay; type: cell-based; conditions: for MIC50 Cryptococcus neoformans ATCC 208821: 50% inhibition, MIC score 2
Summary of the method: (§2)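 YNB broth; inoculum 2.5 × 10^3 CFU/mL final; 35 °C, 36 h, no shaking; MIC at ≥80% inhibition (CLSI M27 score 0–1); n = 4–8.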

human red blood cells = type: cell-based
Summary of the method: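 Washed human erythrocytes at 0.5 × 10^8 cells/mL incubated with compound, then centrifuged. Haemolysis read as supernatant OD405, normalised to untreated cells (0%) and 1% Triton X-100 (100%), with melittin as internal plate control.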

G. mellonella larvae = assay: Galleria mellonella in vivo toxicity assay; conditions: 10 μL of the highest concentration injected, monitored 6 days
Experimental: Based on criteria of overall antifungal activity, cytotoxicity, and hemolysis as well as compound availability, we selected compounds Co1, Ag2, Eu1, Ir1, Pt1, Pt2, Pt4, Pt5, Au1, Au2, and Au4 to conduct a preliminary in vivo toxicity assay. […] The compounds were dissolved in DMSO and diluted to the highest possible final concentration (Table 3). The larvae were then monitored for 6 days for survival and health using the G. mellonella Health Index Scoring System.[111] […] For the other compounds, no detrimental effects could be observed in the larvae over the monitoring period. […] Nevertheless, factors such as the metabolism, excretion, and/or accumulation of the various metal complexes and their metabolites will still need to be studied more rigorously in rodent models if they are to be advanced into the preclinical pipeline.
The toxicity of compounds was tested in vivo using the G. mellonella model using our previously described methods,[61] Briefly, G. mellonella larvae were reared in a controlled environmental room at Macquarie University, Sydney, Australia, at 30 °C and 65% humidity with a 12-h light/dark cycle. Larvae (200–250 mg) were individually injected with 10 μL of chemical into the last right pro-leg using a 100 μL syringe (Hamilton Ltd.). Each compound was dissolved in DMSO at the maximum concentration given in Table 3 and also diluted in water to final concentrations of 100, 10, and 1 μM. We injected five larvae in triplicate for each of the four dilutions for each compound. Larvae injected with different dilutions of DMSO (10^–1, 10^–2, and 10^–3) were included as negative controls. Following injection, the larvae were incubated at 30 °C and monitored every 24 h for 6 days. Larval performance was assessed according to the G. mellonella Health Index Scoring System.[111] The experiments were repeated over three separate days for biological triplicates.

[8] = test system: HEK-293 human embryonic kidney cells ATCC CRL-1573; conditions: for HEK CC50: initial CO-ADD screening, 20 h; for CC50: read-out: HEK293 CC50, ranges obtained upon retesting, new batch
Experimental: The cells were incubated together with the compounds for 20 h at 37 °C in 5% CO2. […] Tamoxifen (Sigma T5648) was used as internal control on each plate.

[9] = test system: Candida albicans ATCC 90028 NCCLS11; assay: Antifungal MIC assay; type: cell-based; conditions: for MIC Candida albicans ATCC 90028 / MIC50 Candida albicans ATCC 90028: extended panel; for MIC Candida albicans ATCC 90028: second batch, ≥80 or ≥50% inhibition; for MIC50 Candida albicans ATCC 90028: 50% inhibition, MIC score 2
Summary of the method: as §2

[10] = test system: Cryptococcus deuterogattii ATCC 32609 VGII; assay: Antifungal MIC assay, extended panel; type: cell-based; conditions: extended panel; 50% inhibition, MIC score 2
[11] = test system: Cryptococcus deuterogattii CBS7750 VGII; Serotype B; assay: Antifungal MIC assay, extended panel; type: cell-based; conditions: extended panel; 50% inhibition, MIC score 2
[12] = test system: Candida auris CBS10913 JCM 15448; assay: Antifungal MIC assay, extended panel; type: cell-based; conditions: extended panel; for MIC50 Candida auris CBS10913: 50% inhibition, MIC score 2
Summary of the method: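 This broth dilution MIC test for yeast used colonies cultured 3 days at 30 °C on YPD agar, suspended to 1 × 10^6 to 5 × 10^6 CFU/mL by OD530 and diluted with YNB. Cells were added at a final 2.5 × 10^3 CFU/mL (50 μL total) to 384-well plates with compound, incubated unshaken at 35 °C for 36 h, with fluconazole as an internal control on every plate.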

[13] = test system: Candida auris CBS12373 KCTC 17810; assay: Antifungal MIC assay, extended panel; type: cell-based; conditions: extended panel; for MIC50 Candida auris CBS12373: 50% inhibition, MIC score 2
Summary of the method: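 This broth microdilution MIC test followed the reference method for antifungal susceptibility testing of yeasts. Fluconazole served as the internal control on every plate. Inoculum came from 3-day YPD agar cultures, was diluted in YNB to 2.5 × 10^3 CFU/mL in 50 μL per well of 384-well plates, and was incubated 36 h at 35 °C. Compounds ran as two technical replicates across two to four independent assays.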

[14] = test system: methicillin-resistant Staphylococcus aureus ATCC 43300; assay: CO-ADD antibacterial MIC assay; type: cell-based; conditions: initial CO-ADD dose-response screening; ≥80% growth inhibition
Summary of the method: (§3)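 Broth microdilution: compounds exposed for 18 h at 37 °C, static, to 5 × 10^5 CFU/mL of mid-log bacteria in cation-adjusted MH broth. OD600 defines MIC as lowest concentration with ≥80% inhibition; n = 4 (2 technical × 2 biological).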

[15] = test system: Pseudomonas aeruginosa ATCC 27853 QC control strain; assay: CO-ADD antibacterial MIC assay; type: cell-based; conditions: initial CO-ADD dose-response screening; ≥80% growth inhibition
Summary of the method: as §3

[16] = test system: Acinetobacter baumannii ATCC 19606 type strain; assay: CO-ADD antibacterial MIC assay; type: cell-based; conditions: initial CO-ADD dose-response screening; ≥80% growth inhibition
Summary of the method: as §3

[17] = test system: Escherichia coli ATCC 25922 FDA control strain; assay: CO-ADD antibacterial MIC assay; type: cell-based; conditions: initial CO-ADD dose-response screening; ≥80% growth inhibition
Summary of the method: as §3

[18] = ranges obtained upon retesting, new batch
[19] = second batch, ≥80 or ≥50% inhibition
[20] = initial CO-ADD dose-response screening, ≥80% growth inhibition

SMILES	MIC Cryptococcus deuterogattii CBS7750 [1] [µM]	MIC Cryptococcus deuterogattii ATCC 32609 [3] [µM]	MIC50 Candida tropicalis ATCC 750 [5] [µM]	MIC50 Candida glabrata ATCC 90030 [6] [µM]	MIC50 Cryptococcus neoformans ATCC 208821 ([7]; extended panel) [µM]	RBC HC10 (human red blood cells; [18]) [µM]	HEK CC50 [8] [µg/mL]	CC50 [8] [µM]	MIC Candida albicans ATCC 90028 [9] [µM]	MIC50 Candida albicans ATCC 90028 [9] [µM]	MIC50 Cryptococcus deuterogattii ATCC 32609 [10] [µM]	MIC50 Cryptococcus deuterogattii CBS7750 [11] [µM]	MIC50 Candida auris CBS10913 [12] [µM]	MIC50 Candida auris CBS12373 [13] [µM]	further results
c1cnc([S][Au][PH](c2ccco2)(c2ccco2)c2ccco2)nc1 [Au1]	0.024 to 0.391	0.098 to 0.391	0.049 to 0.391	0.098 to 0.391	0.098 to 0.195	90 to 200	>32	0.1 to 0.6	0.049 to 0.391	0.049 to 0.391	0.024 to 0.049	0.024 to 0.098	0.098 to 0.195	0.098 to 0.391	MIC Candida tropicalis ATCC 750 [2]: 0.049 to 0.391 µM; MIC Candida glabrata ATCC 90030 [4]: 0.098 to 0.781 µM; MIC Cryptococcus neoformans ATCC 208821 ([7]; extended panel, second batch, ≥80 or ≥50% inhibition): 0.098 to 0.195 µM; toxicity (G. mellonella larvae): nontoxic; MIC ([12]; second batch, ≥80 or ≥50% inhibition, read-out: MIC* Candida auris CBS10913): 0.098 µM; MIC Candida auris CBS12373 [13, 19]: 0.098 to 0.391 µM
Cc1c(C)c(-c2ccc(-c3ccccc3)cc2)[c-](C)c1C.Cc1ccccc1NC1=[NH+][Ir]([Cl])[NH]C(NS(=O)(=O)c2cccc3c(N(C)C)cccc23)=N1 [Ir3]	0.024 to 0.049	0.049 to 0.2	0.098	0.098	0.024	3 to 41	>32	54 to 76	0.024 to 0.098	0.049	0.049 to 0.098	0.024	0.098	0.024 to 0.049	MIC [2]: 0.098 µM; MIC [4]: 0.098 µM; MIC MRSA (Sa) [14]: 0.5 µg/mL; MIC Pa [15]: >32 µg/mL; MIC Ab [16]: >32 µg/mL; MIC Ec [17]: >32 µg/mL; MIC ([7]; extended panel, second batch, ≥80 or ≥50% inhibition, read-out: MIC* Cryptococcus neoformans ATCC 208821): 0.024 µM; MIC Cn [7, 20]: 1 µg/mL; RBC HC10 (human red blood cells; initial CO-ADD screening, 1 h, 10% hemolysis): >32 µg/mL; MIC Ca [9, 20]: 2 µg/mL; MIC Candida auris CBS10913 [12, 19]: 0.024 to 0.098 µM
